The results in this text go back to US5190921A, “Amino acids and peptides having a modified tyrosine residue, their preparation and their application as medicaments” (Institut National de la Sante et de la Recherche Medicale …, priority 1988, dated 1993).

The structures appear in SMILES notation. *1 amine or outer side, *2 acyl side, *3 side chain or, on linkers, in order; H or OH if unused. Where a SMILES comes first, the peptide text is derived from it. [ ]: non-standard residue; d: D form. The star is where a group is joined. X1 = CCCC[C@@H](NC(=O)CC(=O)*)NC(=O)[C@H](Cc1ccc(CS(=O)(=O)O)cc1)NC(C)=O; Phe(4-CH2SO3H) = N[C@@H](Cc1ccc(CS(=O)(=O)O)cc1)C(=O)O; X2 = O=C([C@@H](Cc1ccc(CS(=O)(=O)O)cc1)N[*:1])[*:2]; sY = N[C@@H](Cc1ccc(OS(=O)(=O)O)cc1)C(=O)O; NMeNle = CCCC[C@H](NC)C(=O)O; Nle = CCCC[C@H](N)C(=O)O; Boc = CC(C)(C)OC(=O)* A value given as a limit tells only on which side of the number the result lay.

A short description of series [1]: Enzymatic stability in crude rat brain membranes. The note with it: enzymatic degradation in crude rat brain membranes; read-out: 1/2 life time. The format is in vitro ADME. As for the experimental part: The resistance of these analogs to enzymatic degradation was tested in crude rat brain membranes which contain at the same time aminopeptidasic, thiolproteasic and encephalinasic activity [Matsas et al. Febs. Lett. 175, 124 (1984); McDermott et al. Neurochem. Int. 5, 641 (1983)]. These compounds were tested according to the protocol previously described by Durieux et al. Neuropeptides 7, 1, (1986).

The test system of the next series is guinea pig ileum. The series can be described thus: Contraction-producing activity on guinea pig ileum. The conditions noted are these: isolated ileum strips, Tyrode's solution, 37° C.; mean ± s.e.m. of three experiments; read-out: Contraction-producing activity on guinea pig ileum, Agonist activity EC50. The protocol:
This test is carried out according to the method described by Hutchinson et al., Eur. J. Pharmacol., 69, 87 (1981). Strips from the terminal portion of the guinea pig ileum are rapidly sampled and fixed in the tank of an isometric gauge containing 25 cm^3 of Tyrode's solution. The solution is maintained at 37° C. while passing through it, bubble by bubble, a gas composed of 95% oxygen and 5% CO2. The compounds under study are tested in the conditions described by Ruiz-Gayo et al., Peptides, 6, 415, (1985).
The values indicated in this table represent the mean (± s.e.m.) of three separate experiments.

Series [2] addresses guinea pig pancreatic acini. The series can be described thus: Pancreatic amylase liberation test. It counts as cell-based. The conditions noted are these: acini incubated 30 minutes at 37° C.; mean of three experiments in triplicate; read-out: Amylase secretion from guinea pig pancreatic acini, Agonist activity EC50. The protocol:
Amylase secretion is measured after incubation of pancreatic acini for 30 minutes at 37° C. in the presence of the products under study, according to the experimental protocol described by Peikin et al., Am. J. Physiol., 235 (6), E 743-E 749, (1978). Amylase activity is determined using Phadebas reagent (Pharmacia), according to the method described by Ceska et al., Experientia, 25, 555 (1969). The values indicated in this table represent the mean of three separate experiments, each carried out in triplicate.

A word on the EC50: it is the concentration needed to bring the measured effect to its halfway point.

In the case of `CSCC[C@H](NC(=O)[C@H](Cc1ccc(OS(=O)(=O)O)cc1)NC(=O)[C@@H](N)CC(=O)O)C(=O)NCC(=O)N[C@@H](Cc1c[nH]c2ccccc12)C(=O)N[C@@H](CCSC)C(=O)N[C@@H](CC(=O)O)C(=O)N[C@@H](Cc1ccccc1)C(N)=O` [CCK8, Asp-Tyr(SO3 H)-Met-Gly-Trp-Met-Asp-Phe-NH2, reference compound], the half-life in series [1] worked out at 0.75 h.

As for `CCCC[C@H](NC(=O)[C@H](Cc1ccc(CS(=O)(=O)O)cc1)NC(C)=O)C(=O)NCC(=O)N[C@@H](Cc1c[nH]c2ccccc12)C(=O)N[C@@H](CCCC)C(=O)N[C@@H](CC(=O)O)C(=O)N[C@@H](Cc1ccccc1)C(N)=O` [Example 13, Ac-L-Phe(p-CH2 SO3 Na)-NLe-Gly-Trp-NLe-Asp-PheNH2] (Ac-[Phe(4-CH2SO3H)][Nle]GW[Nle]DF-NH2), the half-maximal effective concentration (EC50) stood at 3.8 nM with guinea pig ileum and 0.33 nM in series [2].

For `CCCC[C@H](NC(=O)[C@H](Cc1c[nH]c2ccccc12)NC(=O)CNC(=O)[C@H](CCCC)NC(=O)[C@@H](Cc1ccc(CS(=O)(=O)O)cc1)NC(C)=O)C(=O)N[C@@H](CC(=O)O)C(=O)N[C@@H](Cc1ccccc1)C(N)=O` [Example 14, Ac-D-Phe(p-CH2 SO3 Na)-NLe-Gly-Trp-NLe-Asp-PheNH2] (Ac-[X2][Nle]GW[Nle]DF-NH2), the concentration giving a half-maximal response (EC50) came to 18 nM in the series on guinea pig ileum and 1.6 nM in series [2].

On to `CCCC[C@@H](NC(=O)CC(=O)N[C@@H](Cc1c[nH]c2ccccc12)C(=O)N(C)[C@@H](CCCC)C(=O)N[C@@H](CC(=O)O)C(=O)N[C@@H](Cc1ccccc1)C(N)=O)NC(=O)[C@H](Cc1ccc(OS(=O)(=O)O)cc1)NC(=O)OC(C)(C)C` [Example 15, Boc-Tyr(SO3 Na)-gNle-mGly-Trp-(N-Me)Nle-Asp(Na)-Phe-NH2], for which the half-life in series [1] is above 3 h. Further, the EC50 with guinea pig ileum stood at 1 nM; in series [2] it was 0.35 nM.

As to `CCCC[C@H](NC(=O)[C@H](Cc1ccc(OS(=O)(=O)O)cc1)NC(=O)OC(C)(C)C)C(=O)NCC(=O)N[C@@H](Cc1c[nH]c2ccccc12)C(=O)N(C)[C@@H](CCCC)C(=O)N[C@@H](CC(=O)O)C(=O)N[C@@H](Cc1ccccc1)C(N)=O` [Example 16, Boc-Tyr(SO3 Na)-Nle-Gly-Trp-(N-Me)Nle-Asp(Na)-Phe-NH2] (Boc-[sY][Nle]GW[NMeNle]DF-NH2), the half-life in series [1] is above 4.17 h. In addition, the EC50 in the series with guinea pig ileum was above 1000 nM; in series [2] it was 377 nM.

As for `CCCC[C@@H](NC(=O)CC(=O)N[C@@H](Cc1c[nH]c2ccccc12)C(=O)N(C)[C@@H](CCCC)C(=O)N[C@@H](CC(=O)O)C(=O)N[C@@H](Cc1ccccc1)C(N)=O)NC(=O)[C@H](Cc1ccc(CS(=O)(=O)O)cc1)NC(C)=O` [Example 18, Ac-L-Phe(p-CH2 SO3 Na)-gNle-mGly-Trp-(N-Me)Nle-Asp-Phe-NH2] (X1-W[NMeNle]DF-NH2), the half-life in series [1] was above 4.17 h. The EC50 was above 1000 nM in the series with guinea pig ileum and 642 nM in series [2].
